The record followed here is ChEMBL document CHEMBL1136598, “Design, synthesis, and structure-activity relationships of unsubstituted piperazinone-based transition state factor Xa inhibitors” (Bioorg Med Chem Lett, 2003).

In data set [1] the target is Vitamin K-dependent protein C (Homo sapiens, UniProt P04070). Description: Inhibitory activity against activated protein C (aPC).
In the next data set the target is Prothrombin (Homo sapiens, UniProt P00734). Description: In vitro inhibitory activity against serine protease thrombin.
Data set [2] deals with T1, Coagulation factor X (Homo sapiens, UniProt P00742). Nature of the data set: In vitro inhibitory activity against factor Xa.
The target in the next data set is Plasminogen (Homo sapiens, UniProt P00747). Nature of the data set: Inhibitory activity against Plasmin.
The nature of data set [3]: Half life period after intravenous administration in rat. It is filed as ADME, organism-based. To be noted: in vivo.
Data set [4] deals with T1, Coagulation factor X. Nature of the data set: (§1) In vitro binding affinity towards factor Xa.
The target in data set [5] is Tissue-type plasminogen activator (Homo sapiens, UniProt P00750). Description: Inhibitory activity against tissue plasminogen activator (tissue plasminogen activator).
Another data set addresses Serine protease 1 (Homo sapiens, UniProt P07477). Nature of the data set: Inhibitory activity against Trypsin.
Data set [6] is described as follows: In vitro anticoagulant activity was measured by activated partial thromboplastin time (APTT) assay. Type of data set: functional.
The nature of data set [7]: In vitro anticoagulant activity was measured by plasma based on thrombin generation (TG) assay. Type of data set: functional.
Data set [8] is filed under the species Oryctolagus cuniculus. Description: Inhibition thrombosis formation in rabbit. Type of data set: functional.
Data set [9] in a line: In vitro anticoagulant activity was measured by prothrombin time (PT) assay. It is filed as functional.
Data set [10] concerns the target T1, Coagulation factor X. Nature of the data set: In vitro binding affinity towards factor Xa; Not active.
The species named for data set [11] is Oryctolagus cuniculus. Nature of the data set: Plasma concentration required to inhibit thrombosis formation in rabbit. Type of data set: functional, organism-based.
Data set [12] is described as follows: Inhibitory activity against Kallikrein.
Data set [13] has as its system Oryctolagus cuniculus. Description: In vivo plasma concentration required to inhibit thrombosis formation in rabbit. Type of data set: functional, organism-based.
Data set [14] is described as follows: In vivo half life period after intravenous administration in rat. It is filed as ADME, organism-based.
Data set [15] deals with Oryctolagus cuniculus. Description: In vivo inhibition of thrombosis formation in rabbit. Type of data set: functional.
The target in data set [16] is T1, Coagulation factor X. The data set is described as §1. This is another data set of the same source.
Data set [17] in a line: In vitro anticoagulant activity was measured by plasma based thrombin generation (TG) assay. Type of data set: functional.

Each structure is given as a SMILES string. pIC50, pKi: −log10 of the molar value. Activity calls are given as the source filed them. Where only a bound is given, the exact number is not on record here.

Chain of Vitamin K-dependent protein C (P04070 43-197 limits assumed): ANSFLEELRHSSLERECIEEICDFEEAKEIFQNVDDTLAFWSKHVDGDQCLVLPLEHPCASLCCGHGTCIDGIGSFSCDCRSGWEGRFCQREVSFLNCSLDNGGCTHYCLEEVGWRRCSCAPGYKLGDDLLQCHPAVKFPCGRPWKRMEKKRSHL
Chain of Vitamin K-dependent protein C (P04070 212-461 limits assumed): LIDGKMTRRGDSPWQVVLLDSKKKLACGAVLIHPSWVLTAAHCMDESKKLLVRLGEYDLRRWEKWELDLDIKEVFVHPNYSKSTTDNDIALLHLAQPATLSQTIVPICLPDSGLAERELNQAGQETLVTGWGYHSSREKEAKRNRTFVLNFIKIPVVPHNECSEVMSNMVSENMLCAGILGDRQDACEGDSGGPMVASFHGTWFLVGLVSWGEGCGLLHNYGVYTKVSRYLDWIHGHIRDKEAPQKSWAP
Chain of Plasminogen (P00747 97-580 limits assumed): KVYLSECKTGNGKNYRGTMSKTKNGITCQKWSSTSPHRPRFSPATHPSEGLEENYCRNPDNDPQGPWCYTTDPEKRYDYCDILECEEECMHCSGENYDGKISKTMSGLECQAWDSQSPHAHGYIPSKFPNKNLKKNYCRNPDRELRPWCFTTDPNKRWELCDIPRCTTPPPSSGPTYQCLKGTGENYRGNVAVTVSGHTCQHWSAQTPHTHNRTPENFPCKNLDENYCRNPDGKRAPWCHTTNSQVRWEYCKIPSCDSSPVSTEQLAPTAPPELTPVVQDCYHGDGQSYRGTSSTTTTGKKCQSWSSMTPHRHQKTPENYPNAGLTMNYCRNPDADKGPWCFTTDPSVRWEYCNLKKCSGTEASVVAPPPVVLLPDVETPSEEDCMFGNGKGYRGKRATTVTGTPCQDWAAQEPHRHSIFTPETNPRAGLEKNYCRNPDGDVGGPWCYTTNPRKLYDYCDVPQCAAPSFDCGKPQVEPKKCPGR
Chain of Plasminogen (P00747 581-810 limits assumed): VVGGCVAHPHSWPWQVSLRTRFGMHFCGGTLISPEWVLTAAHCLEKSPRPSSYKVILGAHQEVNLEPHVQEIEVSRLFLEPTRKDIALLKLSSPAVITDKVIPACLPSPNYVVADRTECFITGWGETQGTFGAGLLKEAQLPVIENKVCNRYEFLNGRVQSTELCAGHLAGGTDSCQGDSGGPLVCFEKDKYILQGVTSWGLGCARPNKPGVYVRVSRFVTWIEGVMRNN
Chain of Serine protease 1 (P07477 whole entry): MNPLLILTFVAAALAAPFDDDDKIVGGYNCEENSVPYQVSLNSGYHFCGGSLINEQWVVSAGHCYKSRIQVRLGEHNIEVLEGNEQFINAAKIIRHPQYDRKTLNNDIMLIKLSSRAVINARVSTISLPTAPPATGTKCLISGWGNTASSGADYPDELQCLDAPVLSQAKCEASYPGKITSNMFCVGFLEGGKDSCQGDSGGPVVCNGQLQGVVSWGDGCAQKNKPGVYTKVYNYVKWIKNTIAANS
T1 sequence (P00742 41-179 limits assumed): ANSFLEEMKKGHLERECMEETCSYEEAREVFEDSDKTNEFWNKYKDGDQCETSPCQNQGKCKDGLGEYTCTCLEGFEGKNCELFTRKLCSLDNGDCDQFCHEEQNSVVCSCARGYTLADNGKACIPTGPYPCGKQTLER
T1 sequence (P00742 235-488 limits assumed): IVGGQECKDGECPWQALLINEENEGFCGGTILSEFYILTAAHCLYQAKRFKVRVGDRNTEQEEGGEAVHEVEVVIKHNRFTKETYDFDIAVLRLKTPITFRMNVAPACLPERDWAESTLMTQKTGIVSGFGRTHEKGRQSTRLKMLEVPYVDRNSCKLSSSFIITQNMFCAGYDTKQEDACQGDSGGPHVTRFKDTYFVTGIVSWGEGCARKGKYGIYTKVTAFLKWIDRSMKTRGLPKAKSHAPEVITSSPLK
Chain of Tissue-type plasminogen activator (P00750 whole entry): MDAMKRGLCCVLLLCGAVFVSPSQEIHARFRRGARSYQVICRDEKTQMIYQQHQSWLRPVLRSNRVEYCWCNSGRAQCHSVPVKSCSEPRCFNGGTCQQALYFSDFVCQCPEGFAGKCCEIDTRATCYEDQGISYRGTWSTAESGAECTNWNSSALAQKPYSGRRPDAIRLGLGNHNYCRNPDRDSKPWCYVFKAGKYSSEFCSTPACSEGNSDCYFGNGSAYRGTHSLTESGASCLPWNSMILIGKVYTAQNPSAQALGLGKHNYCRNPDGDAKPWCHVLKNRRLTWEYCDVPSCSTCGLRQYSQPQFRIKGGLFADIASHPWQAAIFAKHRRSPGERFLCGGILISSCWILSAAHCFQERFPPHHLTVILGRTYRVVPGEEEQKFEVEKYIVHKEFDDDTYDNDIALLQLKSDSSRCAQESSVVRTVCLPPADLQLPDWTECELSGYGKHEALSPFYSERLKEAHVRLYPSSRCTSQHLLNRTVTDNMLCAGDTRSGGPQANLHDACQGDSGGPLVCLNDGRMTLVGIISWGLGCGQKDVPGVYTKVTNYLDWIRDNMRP

The term pIC50 denotes the IC50 on a negative log10 scale, so that one unit is a factor of ten. A lower pIC50 goes with a large IC50. One may read the half-life as the time needed for the level to fall by half in the phase considered. The term pKi denotes −log10 of the Ki, conventionally taken in molar units. As to `Cc1c(S(=O)(=O)N2CCN(CC(=O)NC(CCCNC(=N)N)C(=O)c3nccs3)C(=O)C2)sc2ccc(Cl)cc12` (stereo not drawn), the negative-log IC50 (pIC50) in data set [1] was 3.77; against Prothrombin, 6.12; at Coagulation factor X [2], 9.29; at Plasminogen it was 5.89; in data set [5], 5.00; on Serine protease 1, 7.70. The compound further registered a half-life in data set [3] of 5 min. Besides, on Coagulation factor X [4], the pKi was 9.77.

Usually Inhibition stands for the drop in the measured response relative to a control, in per cent. A lower Inhibition goes with a response near the control. On to `Cc1c(S(=O)(=O)N2CCN(CC(=O)NC(CCCN=C(N)N)C(=O)c3nccs3)C(=O)C2)sc2ccc(Cl)cc12` (stereo not drawn), for which the 2x APTT in data set [6] was found to be 15.5 µM. In [7], the “2x TG” value was 5.46 µM. In the data set filed under Oryctolagus cuniculus [8], this compound yielded an Inhibition of 0%. Also, the 2x PT in data set [9] is 14.5 µM. On Coagulation factor X [10], the k_off result is “inactive” and the k_on entry was “inactive”. The compound also gave a Plasma concentration in the data set filed under Oryctolagus cuniculus [11] of 1.6 µM. This compound also had a negative logarithm of the IC50 (pIC50) in data set [12] of 8.03.

As for `N=C(N)NCCC[C@@H](NC(=O)CN1CCN(S(=O)(=O)Cc2ccccc2)CC1=O)C(=O)c1nccs1`, the pIC50 in data set [1] is less than 3.74; against Prothrombin, 6.41; on Coagulation factor X [2], 8.40; on Plasminogen, 4.92; in data set [5], 5.40; in data set [12], 6.17. On Serine protease 1, this compound showed a pIC50 of 7.48. In the data set with Oryctolagus cuniculus [13], this compound returned a Plasma concentration of 0.4 µM. The same compound gave a 2x APTT in data set [6] of 2.8 µM. Also, the half-life in [14] was found to be 10 min. Also, the Inhibition with Oryctolagus cuniculus [15] was 35%. The k off on Coagulation factor X [16] stood at 0.013 s⁻¹. This compound also showed a k on on Coagulation factor X [16] of 2.3e+06 M⁻¹ s⁻¹. In data set [9], this compound yielded a 2x PT of 11.7 µM. On Coagulation factor X [4], this compound showed a negative-log Ki (pKi) of 8.85. Further, the “2x TG” value in data set [17] is “inactive”.

Take `N=C(N)NCCCC(NC(=O)CN1CCN(S(=O)(=O)c2ccc3c(Cl)cccc3c2)CC1=O)C(=O)c1nccs1` (stereo not drawn): the pIC50 was 3.77 in data set [1]; 5.70 on Prothrombin; 9.10 against Coagulation factor X [2]; 5.73 against Plasminogen; 6.13 in [5]; 7.47 in data set [12]. On Serine protease 1, this compound gave a pIC50 of 7.69. The 2x APTT in data set [6] is 12.5 µM. Moreover, the “2x TG” value in data set [7] is “inactive”. Besides, in the data set filed under Oryctolagus cuniculus [8], the Inhibition worked out at 0%. The compound further had a half-life in data set [3] of 51 min. In addition, in [9], the 2x PT was 12.5 µM. Besides, at Coagulation factor X [4], the pKi was 8.89. For the same compound, on Coagulation factor X [10], the k_off entry was “inactive”. Further, the k_on entry on Coagulation factor X [10] was “inactive”. Moreover, in the data set listed under Oryctolagus cuniculus [11], the Plasma concentration worked out at 0.2 µM.
